“Also recorded” adds a separate entry of the source. Positions of bridges follow the written chain, without caps; N, C: chain ends. No end group written: not given here.
Experiments:
[1] = system: Lamina I or II neurons in the dorsal horn; experiment: whole-cell patch clamp recording in spinal cord slices with intact dorsal root afferents from Chung models (Example 1); assay type: cell-based, rat
Procedure: An in vitro spinal cord slice with intact dorsal root afferents combined with single-cell whole-cell patch claim electrophysiological recording techniques was used to assess the electrophysiological properties of SEQ ID NO:26 (SCRSRPVESSC; also referred to herein as LAT9993).
Spinal cord slices were prepared from models of neuropathic pain (Chung models; as previously described in Chung et al., Methods Mol Med. 2004; 99:35-45, the contents of which are incorporated herein by reference) and tested against the peptide of SEQ ID NO:26. Chung model rats, aged 8 to 12 weeks, were housed in an air-conditioned room on a 12 hour light/dark cycle with food and water available ad libitum. The rats were terminally anaesthetized using isofluorane and decapitated. […]
Whole-cell recordings were performed at 34-35° C. from Lamina I or II neurons in the dorsal horm of the spinal cord slices using Axopatch 1D and/or Multiclamp 700B amplifies and using the “blind” version of the patch-clamp technique. […] Biocytin was included in the patch solution to allow post-recording identification of the recorded neurons. The peptide of SEQ ID NO:26 was applied to the recorded tissue in the tissue bath at concentrations between 0.5 μM and 5 μM.

[2] = system: Chung model rats; experiment: Chung model of neuropathic pain, paw withdrawal (Example 2); assay type: in vivo, rat; details: 10 mg/kg orally or intramuscular; 1, 2 and 4 hours post-dosing; n=8
Procedure: The peptide of SEQ ID NO:26 was administered at 10 mg/kg either orally (PQ) or by intramuscular (IM) injection to Chung model rats and pain was assessed by paw withdrawal. Pre-dosing control; Vehicle: 5% DMSO in PBS. *** p<0.001, compared to the same time points in the Vehicle control group; #p<0.05, compared to SEQ ID NO:26 PO group at the same time point. n=8 for each group.
An […] Chung model of chronic nerve constriction in rats (Chung et al., Methods Mol. Med. 2004; 99:35-45) was used to assess the effect of SEQ ID NO:26 on neuropathic pain. SEQ ID NO:26 was administered at 10 mg/kg either orally or by intramuscular injection to Chung model rats and pain was assessed by paw withdrawal.

SCRSRPVESSC (disulfide 2-11 (inferred); listed as Homo sapiens) [SEQ ID NO:26, cyclic peptide of formula (I) formed by a disulphide bond between the two cysteine residues]
neuronal input resistance (effect in words) ([1]; 1 μM (FIG. 2), bath applied): reduction in neuronal input resistance; also recorded: reversible on washout | excitatory postsynaptic potentials (EPSPs) ([1]; 5 μM (FIG. 3), 0.1 Hz, 1 Hz): suppressed | pain as measured by paw withdrawal threshold (PWT) [2]: significantly reduced pain
